Target: T1, RNR (RNR1:RNR2 1:1) (Homo sapiens, UniProt P23921)
T1 sequence (P23921 1-792): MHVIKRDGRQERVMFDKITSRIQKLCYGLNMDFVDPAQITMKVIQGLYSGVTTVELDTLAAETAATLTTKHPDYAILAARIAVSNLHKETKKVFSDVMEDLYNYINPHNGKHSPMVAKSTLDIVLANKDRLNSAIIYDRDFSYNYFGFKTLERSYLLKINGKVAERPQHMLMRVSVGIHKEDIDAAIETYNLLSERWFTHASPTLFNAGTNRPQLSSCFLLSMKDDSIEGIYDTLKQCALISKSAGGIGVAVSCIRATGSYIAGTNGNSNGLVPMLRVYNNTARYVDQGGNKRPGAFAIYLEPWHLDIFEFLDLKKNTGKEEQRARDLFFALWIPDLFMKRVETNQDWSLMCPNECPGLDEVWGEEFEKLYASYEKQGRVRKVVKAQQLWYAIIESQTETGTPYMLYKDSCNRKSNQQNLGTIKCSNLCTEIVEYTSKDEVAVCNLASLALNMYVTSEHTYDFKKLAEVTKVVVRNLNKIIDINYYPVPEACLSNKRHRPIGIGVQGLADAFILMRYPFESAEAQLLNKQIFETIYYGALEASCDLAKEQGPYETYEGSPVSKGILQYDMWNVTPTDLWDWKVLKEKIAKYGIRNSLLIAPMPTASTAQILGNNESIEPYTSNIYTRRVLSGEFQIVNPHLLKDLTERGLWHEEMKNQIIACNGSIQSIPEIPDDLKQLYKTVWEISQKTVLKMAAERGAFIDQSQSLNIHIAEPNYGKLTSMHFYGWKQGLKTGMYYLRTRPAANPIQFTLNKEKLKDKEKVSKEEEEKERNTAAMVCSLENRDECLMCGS
Assay: RNR enzyme activity, rapid-fire mass spectrometry (RFMS) assay
Type: biochemical
Conditions: RNR 50 nM, CDP 5 μM, ATP 1 mM, 37° C., 45 min, compounds screened up to 50 μM, read-out: RF/MS IC50
Experimental: A rapid-fire mass spectrometry (RFMS) assay was used to assess RNR enzyme activity using a 384 well plate and a robotic platform.
The plate layout included two validated reference compounds (Triapine (3-AP) and Hydroxyurea (HU)): • A dose response in duplicate; top concentration: 5 μM (3-AP) and 250 μM (HU), semi-log dilutions. • Spike wells in triplicate randomly spotted at four concentrations: • 250 μM, 100 μM, 30 μM and 2 μM for HU • 5 μM, 2 μM, 0.6 μM and 0.04 μM for 3-AP
First, the multidrop pipes were saturated for 30 minutes with enzymatic solution. Then 30 μL of Stop solution was distributed in column 24. Next, 15 μL of enzyme was distributed in column 1 to 24. Next, a pre-incubation step of 15 minutes at room temperature occurred, followed by distribution of 15 μL of substrate solution (column 1 to 24). Next, the plate was incubated for 45 minutes at 37° C. 30 μL of Stop solution was distributed to columns 1 to 23.
The final parameters for the enzyme reactions were: • Incubation: 37° C., 45 min • [CDP]: 5 μM; [ATP]: 1 mM; [NADPH]: No • [RNR] final: 50 nM with 1:1 (RNR1:RNR2) ratio • Final volume: 30 μL • Stop solution: 6% HCOOH containing 2 μM of 15

Compound	IC50
CNC(=O)CC1CCN(S(=O)(=O)N[C@H](c2n[nH]c(=O)o2)C(C)c2c(F)ccc(C)c2C)CC1 (stereo partly drawn) [Example 66, 2-(1-(N-((1S)-2-(6-fluoro-2,3-dimethylphenyl)-1-(5-oxo-4,5-dihydro-1,3,4-oxadiazol-2-yl)propyl)sulfamoyl)piperidin-4-yl)-N-methylacetamide]	10 to 100 µM
Cc1ccc(F)c([C@@H](C)[C@H](NS(=O)(=O)N2CCC(c3nncn3C)CC2)c2n[nH]c(=O)o2)c1C [Example 52, N-((1S,2R)-2-(6-fluoro-2,3-dimethylphenyl)-1-(5-oxo-4,5-dihydro-1,3,4-oxadiazol-2-yl)propyl)-4-(4-methyl-4H-1,2,4-triazol-3-yl)piperidine-1-sulfonamide]	10 to 100 µM
Cc1ccc(F)c([C@H](C)[C@H](NS(=O)(=O)N2CCC(C(C)C)CC2)c2n[nH]c(=O)o2)c1C [Example 39, N-((1S,2S)-2-(6-fluoro-2,3-dimethylphenyl)-1-(5-oxo-4,5-dihydro-1,3,4-oxadiazol-2-yl)propyl)-4-isopropylpiperidine-1-sulfonamide]	1 to 10 µM
CC(=O)[C@H]1CCCCN1S(=O)(=O)N[C@H](c1n[nH]c(=O)o1)[C@H](C)c1c(F)ccc(C)c1C [Example 19, (R)-2-acetyl-N-((1S,2R)-2-(6-fluoro-2,3-dimethylphenyl)-1-(5-oxo-4,5-dihydro-1,3,4-oxadiazol-2-yl)propyl)piperidine-1-sulfonamide]	1 to 10 µM
COC(=O)C1CC12CCN(S(=O)(=O)N[C@H](c1n[nH]c(=O)o1)C(C)c1c(F)ccc(C)c1C)CC2 (stereo partly drawn) [Example 92, methyl 6-(N-((1S)-2-(6-fluoro-2,3-dimethylphenyl)-1-(5-oxo-4,5-dihydro-1,3,4-oxadiazol-2-yl)propyl)sulfamoyl)-6-azaspiro[2.5]octane-1-carboxylate]	0.1 to 1 µM
CNC(=O)C1CCN(S(=O)(=O)N[C@H](c2n[nH]c(=O)o2)[C@H](C)c2c(F)ccc(C)c2C)CC1 [Example 57, 1-(N-((1S,2R)-2-(6-fluoro-2,3-dimethylphenyl)-1-(5-oxo-4,5-dihydro-1,3,4-oxadiazol-2-yl)propyl)sulfamoyl)-N-methylpiperidine-4-carboxamide]	1 to 10 µM
Cc1ccc(F)c(C(C)[C@H](NS(=O)(=O)N2CCC(OC(F)(F)F)CC2)c2n[nH]c(=O)o2)c1C (stereo partly drawn) [Example 46, N-((1S)-2-(6-fluoro-2,3-dimethylphenyl)-1-(5-oxo-4,5-dihydro-1,3,4-oxadiazol-2-yl)propyl)-4-(trifluoromethoxy)piperidine-1-sulfonamide]	1 to 10 µM
CC(=O)NC1CCN(S(=O)(=O)N[C@H](c2n[nH]c(=O)o2)C(C)c2c(F)ccc(C)c2C)CC1 (stereo partly drawn) [Example 29, N-(1-(N-((1S)-2-(6-fluoro-2,3-dimethylphenyl)-1-(5-oxo-4,5-dihydro-1,3,4-oxadiazol-2-yl)propyl)sulfamoyl)piperidin-4-yl)acetamide]	10 to 100 µM
Cc1ccc(F)c(C(C)[C@H](NS(=O)(=O)N2CCCC3CN(C(=O)OC(C)(C)C)CC32)c2n[nH]c(=O)o2)c1C (stereo partly drawn) [Example 23, tert-butyl 1-(N-((1S)-2-(6-fluoro-2,3-dimethylphenyl)-1-(5-oxo-4,5-dihydro-1,3,4-oxadiazol-2-yl)propyl)sulfamoyl)-octahydro-6H-pyrrolo[3,4-b]pyridine-6-carboxylate]	1 to 10 µM
Cc1ccc(F)c([C@@H](C)[C@H](NS(=O)(=O)N2CCC3(CC2)CC(F)(F)C3)c2n[nH]c(=O)o2)c1C [Example 94, 2,2-difluoro-N-((1S,2R)-2-(6-fluoro-2,3-dimethylphenyl)-1-(5-oxo-4,5-dihydro-1,3,4-oxadiazol-2-yl)propyl)-7-azaspiro[3.5]nonane-7-sulfonamide]	0.1 to 1 µM
Cc1ccc(F)c([C@@H](C)[C@H](NS(=O)(=O)N2CCC(Cl)(Cl)CC2)c2n[nH]c(=O)o2)c1C [Example 97, 4,4-dichloro-N-((1S,2R)-2-(6-fluoro-2,3-dimethylphenyl)-1-(5-oxo-4,5-dihydro-1,3,4-oxadiazol-2-yl)propyl)piperidine-1-sulfonamide]	≤ 0.1 µM
Cc1ccc(F)c(C(C)[C@H](NS(=O)(=O)N2CCC(F)(F)CC2C)c2n[nH]c(=O)o2)c1C (stereo partly drawn) [Example 111, 4,4-difluoro-N-((1S)-2-(6-fluoro-2,3-dimethylphenyl)-1-(5-oxo-4,5-dihydro-1,3,4-oxadiazol-2-yl)propyl)-2-methylpiperidine-1-sulfonamide]	0.1 to 1 µM
Cc1ccc(F)c([C@H](C)[C@H](NS(=O)(=O)N2CCCCC2CC(N)=O)c2n[nH]c(=O)o2)c1C (stereo partly drawn) [Example 16, 2-(1-(N-((1S,2S)-2-(6-fluoro-2,3-dimethylphenyl)-1-(5-oxo-4,5-dihydro-1,3,4-oxadiazol-2-yl)propyl)sulfamoyl)piperidin-2-yl)acetamide]	1 to 10 µM
Cc1ccc(F)c([C@H](C)[C@H](NS(=O)(=O)N2CC3C(C2)C3(C)C)c2n[nH]c(=O)o2)c1C (stereo partly drawn) [Example 103, N-((1S,2S)-2-(6-fluoro-2,3-dimethylphenyl)-1-(5-oxo-4,5-dihydro-1,3,4-oxadiazol-2-yl)propyl)-6,6-dimethyl-3-azabicyclo[3.1.0]hexane-3-sulfonamide]	1 to 10 µM
Cc1ccc(F)c([C@@H](C)[C@H](NS(=O)(=O)N2CCC3(CCCN(C)C3)CC2)c2n[nH]c(=O)o2)c1C [Example 83, N-((1S,2R)-2-(6-fluoro-2,3-dimethylphenyl)-1-(5-oxo-4,5-dihydro-1,3,4-oxadiazol-2-yl)propyl)-2-methyl-2,9-diazaspiro[5.5]undecane-9-sulfonamide]	1 to 10 µM

Results, then the molecule that gave them:

IC50	Compound
1 to 10 µM	Cc1ccc(F)c([C@@H](C)[C@H](NS(=O)(=O)N2CCCC(C)(C)C2)c2n[nH]c(=O)o2)c1C [Example 117, N-((1S,2R)-2-(6-fluoro-2,3-dimethylphenyl)-1-(5-oxo-4,5-dihydro-1,3,4-oxadiazol-2-yl)propyl)-3,3-dimethylpiperidine-1-sulfonamide]
0.1 to 1 µM	Cc1ccc(F)c([C@@H](C)[C@H](NS(=O)(=O)N2CCC(C(C)(C)C)CC2)c2n[nH]c(=O)o2)c1C [Example 131, 4-(tert-butyl)-N-((1S,2R)-2-(6-fluoro-2,3-dimethylphenyl)-1-(5-oxo-4,5-dihydro-1,3,4-oxadiazol-2-yl)propyl)piperidine-1-sulfonamide]
1 to 10 µM	Cc1ccc(F)c(C(C)[C@H](NS(=O)(=O)N2CCN(CC(F)F)CC2)c2n[nH]c(=O)o2)c1C (stereo partly drawn) [Example 124, 4-(2,2-difluoroethyl)-N-((1S)-2-(6-fluoro-2,3-dimethylphenyl)-1-(5-oxo-4,5-dihydro-1,3,4-oxadiazol-2-yl)propyl)piperazine-1-sulfonamide]
10 to 100 µM	Cc1ccc(F)c(C(C)[C@H](NS(=O)(=O)N2CCC(F)(F)C2)c2n[nH]c(=O)o2)c1C (stereo partly drawn) [Example 137, 3,3-difluoro-N-((1S)-2-(6-fluoro-2,3-dimethylphenyl)-1-(5-oxo-4,5-dihydro-1,3,4-oxadiazol-2-yl)propyl)pyrrolidine-1-sulfonamide]
0.1 to 1 µM	Cc1ccc(F)c([C@H](C)[C@H](NS(=O)(=O)N2CCC3(CC2)OCCO3)c2n[nH]c(=O)o2)c1C [Example 134, N-((1S,2S)-2-(6-fluoro-2,3-dimethylphenyl)-1-(5-oxo-4,5-dihydro-1,3,4-oxadiazol-2-yl)propyl)-1,4-dioxa-8-azaspiro[4.5]decane-8-sulfonamide]
1 to 10 µM	COCC1CCCN(S(=O)(=O)N[C@H](c2n[nH]c(=O)o2)[C@H](C)c2c(F)ccc(C)c2C)C1 (stereo partly drawn) [Example 129, N-((1S,2R)-2-(6-fluoro-2,3-dimethylphenyl)-1-(5-oxo-4,5-dihydro-1,3,4-oxadiazol-2-yl)propyl)-3-(methoxymethyl)piperidine-1-sulfonamide]
1 to 10 µM	COCC1CCCN(S(=O)(=O)N[C@H](c2n[nH]c(=O)o2)[C@@H](C)c2c(F)ccc(C)c2C)C1 (stereo partly drawn) [Example 130, N-((1S,2S)-2-(6-fluoro-2,3-dimethylphenyl)-1-(5-oxo-4,5-dihydro-1,3,4-oxadiazol-2-yl)propyl)-3-(methoxymethyl)piperidine-1-sulfonamide]

Source: patent publication US20240425490A1, “SULFAMIDE RIBONUCLEOTIDE REDUCTASE (RNR) INHIBITORS AND USES THEREOF” (Boundless Bio, Inc., priority 2021, published 2024)
